Holding throughout (format): functional, cell-based
The subject of assay [1] is HL-60. The experiment in a line: Induction of apoptosis in human HL60 cells assessed as DNA ladder formation at 0.3 uM after 4 hrs by DNA electrophoresis.
The subject of assay [2] is HL-60. Briefly: Induction of apoptosis in human HL60 cells assessed as necrotic cell death at 30 uM after 4 hrs using DAPI/PI by confocal laser microscopy analysis.
For assay [3], the system named is HL-60. Briefly: Induction of apoptosis in human HL60 cells assessed as reduction of cell viability after 4 hrs by alamar blue assay. (The colour change of resazurin is a common sign of viable cells or microbes.)
Assay [4] has as its system HL-60. The experiment in a line: Induction of apoptosis in human HL60 cells assessed as activation of caspase 3 at 0.3 uM after 2 hrs by Western blot analysis. On the technique in general: In western blotting, separated proteins are transferred to a membrane and probed.
For assay [5], the system named is HL-60. Briefly: Induction of apoptosis in human HL60 cells assessed as nuclear fragmentation at 0.3 uM after 4 hrs using DAPI/PI by confocal laser microscopy analysis.
Assay [6] has as its system HL-60. The experiment in a line: Induction of apoptosis in human HL60 cells assessed as increase of cellular ROS level.
The subject of assay [7] is HL-60. Briefly: Induction of apoptosis in human HL60 cells assessed as activation of caspase 3 at 0.3 uM after 2 hrs by Western blot analysis in presence of caspase 9 inhibitor […].
Assay [8] relates to HL-60. Briefly: Induction of apoptosis in human HL60 cells assessed as activation of caspase 3 at 0.3 uM after 2 hrs by Western blot analysis in presence of caspase inhibitor Z-VAD.
The subject of assay [9] is HL-60. Briefly: Potentiation of TNF-alpha-ligand-induced apoptosis in human HL60 cells at 30 uM.
The test system of assay [10] is HL-60. The experiment in a line: Induction of apoptosis in human HL60 cells assessed as DNA ladder formation at 30 uM after 4 hrs by DNA electrophoresis.
Assay [11] deals with HL-60. Briefly: Potentiation of FAS-ligand-induced apoptosis in human HL60 cells at 30 uM.
The subject of assay [12] is HL-60. Briefly: Induction of apoptosis in human HL60 cells at 0.3 uM in presence of caspase 9 inhibitor […].
In assay [13] the test system is HL-60. The experiment in a line: Induction of apoptosis in human HL60 cells assessed as activation of caspase 3 at 0.3 uM after 2 hrs by Western blot analysis in presence of caspase 8 inhibitor Z-IETD.
The subject of assay [14] is HL-60. The experiment in a line: Induction of apoptosis in human HL60 cells at 0.3 uM in presence of caspase 8 inhibitor Z-IETD.
For assay [15], the system named is HL-60. The experiment in a line: Induction of apoptosis in human HL60 cells assessed as reduction of cell viability at up to 30 uM after 4 hrs by alamar blue assay.

Active and inactive are the calls of the source. The rule behind the calls is not given here.

Consider `CN1C(=O)[C@@]23C[C@]4([C@]56C[C@@]78SS[C@@](CO)(C(=O)N7[C@H]5Nc5ccccc56)N(C)C8=O)c5ccccc5N[C@@H]4N2C(=O)[C@]1(CO)SS3`, for which the result in the assay on HL-60 [1] and with HL-60 [6] was inactive. Besides, the outcome with HL-60 [2], in the assay with HL-60 [4] and in the assay with HL-60 [5] was Active. The Activity result with HL-60 [3] was “Dose-dependent effect”.
Regarding `CN1C(=O)[C@]23C[C@@]4([C@@]56C[C@]78SS[C@](CO)(C(=O)N7[C@@H]5Nc5ccccc56)N(C)C8=O)c5ccccc5N[C@H]4N2C(=O)[C@@]1(CO)SS3`, the result with HL-60 [1], in the assay with HL-60 [7], with HL-60 [2], in the assay on HL-60 [4], in the assay with HL-60 [12] and in the assay on HL-60 [5] was Active. Also, the outcome in the assay with HL-60 [8], with HL-60 [9], in the assay with HL-60 [10], with HL-60 [11], in the assay on HL-60 [13] and in the assay with HL-60 [14] was inactive. For the same compound, the outcome in the assay on HL-60 [6] was inactive.
Take `CN1C(=O)[C@H]2C[C@]3([C@]45C[C@@H]6C(=O)N(C)[C@H](CO)C(=O)N6[C@H]4Nc4ccccc45)c4ccccc4N[C@@H]3N2C(=O)[C@H]1CO`: in the assay with HL-60 [15], the outcome was inactive.

The record behind these values is ChEMBL document CHEMBL1221299, “Unnatural enantiomer of chaetocin shows strong apoptosis-inducing activity through caspase-8/caspase-3 activation” (Bioorg Med Chem Lett, 2010).
